From PMC10897015, “Investigation of anti-nociceptive, anti-inflammatory potential and ADMET studies of pure compounds isolated from Isodon rugosus Wall. ex Benth” (Frontiers in Pharmacology, 2024)
“And” between values parts separate entries of the source, which are not always exact repeats. Identical values can stand only once. Like-named read-outs stand apart in the source and are kept apart here.

Tests used:
[1] = test system: Swiss albino mice; assay: Hot plate test, involvement of adrenergic receptors; type: in vivo; conditions: single animals
Procedure: The analgesic effects of the isolated compounds were measured using the hot plate method at a monitored temperature of 55 ± 0.2°C. The Swiss albino mice were positioned on the heated surface of the hot plate, and the period from placement to the onset of licking their hind paws or starting jump movements was noted as the response latency (thermal reactions). The test compounds were injected intraperitoneally. […] The animal models were checked for thermal reactions at various time intervals after sample administration.
The outcomes of the positive control and tested compounds were compared in animals pretreated with yohimbine. […] Additionally, clonidine at a dose of 3 μg/kg was intravenously administered. The animals were then subjected to the hot plate method, as reported before.

[2] = test system: mice; assay: Carrageenan-induced paw edema; type: in vivo; conditions: for % edema volume inhibition (mean): aspirin 10 mg/kg; for Paw edema percent inhibition, individual values / Paw edema, individual values: single animals
Procedure: The animals under study were divided into different groups. Prior to the experiment, the animals had only access to water. […] Additionally, the isolated compounds being tested were given 30 min before injecting 0.05 ml of 1% carrageenan into the sub-plantar region of the paw. To measure the volume changes in the paw, a digital plethysmometer was employed. Readings were taken before and after the carrageenan injection at hourly intervals over a total period of 5 h.

[3] = biological target: T1, COX-2 (Homo sapiens, UniProt P35354); assay: Cyclooxygenase-2 inhibitory activity; type: biochemical; conditions: for % inhibition, COX-2 (mean ± SEM) / Percent Inhibition (COX-2), single replicates: listed as Comp 2; for Percent Inhibition (COX-2), single replicates: replicates 1-3; for IC50: COX-2
T1 sequence (P35354 18-604): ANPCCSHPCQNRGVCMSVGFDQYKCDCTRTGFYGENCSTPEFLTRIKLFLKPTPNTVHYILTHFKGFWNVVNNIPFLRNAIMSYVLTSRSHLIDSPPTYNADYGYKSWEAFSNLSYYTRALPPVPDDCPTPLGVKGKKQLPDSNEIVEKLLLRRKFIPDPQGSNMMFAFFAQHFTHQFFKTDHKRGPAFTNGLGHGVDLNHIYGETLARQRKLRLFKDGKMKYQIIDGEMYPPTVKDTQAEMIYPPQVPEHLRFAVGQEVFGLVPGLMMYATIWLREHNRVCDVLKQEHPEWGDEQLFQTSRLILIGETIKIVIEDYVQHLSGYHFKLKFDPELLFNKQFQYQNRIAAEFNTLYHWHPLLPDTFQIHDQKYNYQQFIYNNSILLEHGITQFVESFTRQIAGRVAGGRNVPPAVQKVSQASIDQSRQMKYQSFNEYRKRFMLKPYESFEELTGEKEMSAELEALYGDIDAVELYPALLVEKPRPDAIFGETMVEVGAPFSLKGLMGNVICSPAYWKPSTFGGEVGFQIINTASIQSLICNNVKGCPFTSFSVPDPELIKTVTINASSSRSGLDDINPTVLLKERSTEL
Procedure: An enzyme solution with a concentration of 300 U/ml was prepared and activated using ice for 5 min with a 50 µL cofactor solution containing glutathione (0.9 mM), TMPD (N,N,N,N_tetramethyl-p-phenylenediaminedihydrochloride) (0.24 mM), and hematin (1 mM) in Tris buffer (0.1 M) with pH 8. The enzyme solution (60 µL) and test samples (20 µL) with various concentrations were incubated at room temperature for 5 minutes. Celecoxib was used as a positive control in the current assay. The absorbance of the samples was measured at 570 nm after the samples had been incubated for 5 min. Arachidonic acid (30 mM, 20 µL) was added to initiate the reaction. The percent inhibition was calculated from the absorbance value per unit time.

[4] = test system: Swiss albino mice; assay: Hot plate test with opioid receptor involvement; type: in vivo; conditions: for Reaction time on hot plate, individual values: single animals; for Reaction time on the hot plate: compounds 50 mg/kg, Mor 5 mg/kg, Nal 1 mg/kg

O=C(CCc1ccc(O)cc1)c1c(O)cc(O)cc1O [Compound 2, 2-4-4-6-tetrahydroxy-dihydrochalcone] was tested, and the “Hot plate analysis (adrenergic), individual values” (“Hot plate analysis (adrenergic)” for short) ([1]; 30 Minutes) was 3.19 and 3.88 and 3.2, the “Hot plate analysis (adrenergic)” value ([1]; 45 Minutes) was 4.32 and 3.32 and 3.1 and the “Hot plate analysis (adrenergic)” value ([1]; 15 minutes) was 2.32 and 1.9 and 3.49. The “Hot plate analysis (adrenergic)” value ([1]; 60 minutes) was 3.2 and 2.9 and 4.02, the “Hot plate analysis (adrenergic)” value ([1]; 90 minutes) was 3.1 and 2.75 and 3.61 and the “% edema volume inhibition (mean)” value ([2]; 1st hour after carrageenan, listed as Comp 2) was 36.72%. The “% edema volume inhibition (mean)” value ([2]; 2nd hour after carrageenan) was 37.45%, the “% edema volume inhibition (mean)” value ([2]; 3rd hour after carrageenan) was 39.6788% and the “% edema volume inhibition (mean)” value ([2]; 4th hour after carrageenan) was 32.922%. For the same molecule, the “% edema volume inhibition (mean)” value ([2]; 5th hour after carrageenan) was 29.246%, the “Paw edema percent inhibition, individual values” (from here on “Paw edema percent inhibition”) ([2]; hour 1, listed as Comp 2) was 42.03% and 38.64% and 36.29% and 31.91% and 34.73% and the “Paw edema, individual values” ([2]; hour 1, listed as Comp 2) was 0.44 and 0.47 and 0.488 and 0.521 and 0.5. For the same molecule, the “Paw edema percent inhibition” value ([2]; hour 2, listed as Comp 2) was 38.57% and 37.62% and 36.26% and 39.35%, the “Paw edema, individual values” ([2]; hour 2, listed as Comp 2) was 0.454 and 0.461 and 0.471 and 0.45 and 0.457 and the “Paw edema percent inhibition” value ([2]; hour 3, listed as Comp 2) was 40.08% and 38.48% and 38.75% and 40.75% and 40.334%. For the same molecule, the “Paw edema, individual values” ([2]; hour 3, listed as Comp 2) was 0.45 and 0.462 and 0.46 and 0.445 and 0.449, the “Paw edema percent inhibition” value ([2]; hour 4, listed as Comp 2) was 32.11% and 31.19% and 31.85% and 32.63% and 36.83% and the “Paw edema, individual values” ([2]; hour 4, listed as Comp 2) was 0.518 and 0.525 and 0.52 and 0.514 and 0.482. The “Paw edema percent inhibition” value ([2]; hour 5, listed as Comp 2) was 29.96% and 29.27% and 30.23% and 28.18% and 28.59%, the “Paw edema, individual values” ([2]; hour 5, listed as Comp 2) was 0.512 and 0.517 and 0.51 and 0.525 and 0.522 and the “% inhibition, COX-2 (mean ± SEM)” value ([3]; 62.5 µg/ml) was 31.8267%. The inhibition at 62.5 µg/mL ([3]; 62.5 µg/ml, read-out: % inhibition, COX-2 (mean ± SEM)) was 31.9 ± 0.92%, the “% inhibition, COX-2 (mean ± SEM)” value ([3]; 250 µg/ml) was 41.1767% and the inhibition at 250 µg/mL ([3]; 250 µg/ml, read-out: % inhibition, COX-2 (mean ± SEM)) was 41.1 ± 0.24%. For the same molecule, the “% inhibition, COX-2 (mean ± SEM)” value ([3]; 500 µg/ml) was 45.1433%, the inhibition at 500 µg/mL ([3]; 500 µg/ml, read-out: % inhibition, COX-2 (mean ± SEM)) was 45.1 ± 0.22% and the “% inhibition, COX-2 (mean ± SEM)” value ([3]; 1000 µg/ml) was 52.9867%. For the same molecule, the inhibition at 1000 µg/mL ([3]; 1000 µg/ml, read-out: % inhibition, COX-2 (mean ± SEM)) was 53 ± 0.79%, the “Percent Inhibition (COX-2), single replicates” value ([3]; 62.5) was 31.46% and 31.74% and 32.28% and the “Percent Inhibition (COX-2), single replicates” value [3]; 125 was 37.07% and 37.62% and 35.7%. The “Percent Inhibition (COX-2), single replicates” value [3]; 250 was 40.49% and 41.18% and 41.86%, the “Percent Inhibition (COX-2), single replicates” value [3]; 500 was 45.69% and 44.6% and 45.14% and the “Percent Inhibition (COX-2), single replicates” value [3]; 1000 was 50.07% and 54.17% and 54.72%. The IC50 ([3]; read-out: IC50) was 2880 µM, the IC50 ([3]; read-out: IC50 (µg/ml) (converted)) was 2880 µM and the “Reaction time on hot plate, individual values” (shortened to “Reaction time on hot plate”) ([4]; at 15, listed as Comp-2) was 3.02 and 3.9 and 4.6. The “Reaction time on hot plate” value ([4]; at 30, listed as Comp-2) was 4.1 and 4.17 and 5.3, the “Reaction time on hot plate” value ([4]; at 45, listed as Comp-2) was 3.12 and 2.58 and 4.1 and the “Reaction time on hot plate” value ([4]; at 60, listed as Comp-2) was 2.3. For the same molecule, the “Reaction time on hot plate” value ([4]; at 90, listed as Comp-2) was 2.06 and 2.49 and 3.99, the “Reaction time on the hot plate” value ([4]; at 15 min) was 03.84 ± 0.03 s and the “Reaction time on the hot plate” value ([4]; at 15 min, listed as Comp-2) was 3.84 s. For the same molecule, the “Reaction time on the hot plate” value ([4]; at 30 min) was 04.52 ± 0.09 s, the “Reaction time on the hot plate” value ([4]; at 30 min, listed as Comp-2) was 4.523 s and the “Reaction time on the hot plate” value ([4]; at 45 min) was 3.27 ± 0.48 s. The “Reaction time on the hot plate” value ([4]; at 45 min, listed as Comp-2) was 3.267 s, the “Reaction time on the hot plate” value ([4]; at 60 min) was 3.18 ± 0.34 s and the “Reaction time on the hot plate” value ([4]; at 60 min, listed as Comp-2) was 3.183 s. The “Reaction time on the hot plate” value ([4]; at 90 min) was 2.85 ± 0.29 s and the “Reaction time on the hot plate” value ([4]; at 90 min, listed as Comp-2) was 2.847 s.
